In BigSolDB 2.1:

CN(C)CCn1[nH]nnc1=S
Conditions | solubility (mole fraction)
in DMF, 293.45 K | 0.000803
in DMF, 298.34 K | 0.000875
in DMF, 303.35 K | 0.00105
in DMF, 308.38 K | 0.00122
in DMF, 313.25 K | 0.00146
in DMF, 318.22 K | 0.00179
in DMF, 323.2 K | 0.00212
in DMF, 328.12 K | 0.00253
in DMF, 333.3 K | 0.00297
in DMF, 338.22 K | 0.00335
in DMF, 345.15 K | 0.00393
in ethanol, 293.25 K | 5.34e-05
in ethanol, 298.15 K | 6.16e-05
in ethanol, 302.95 K | 7.31e-05
in ethanol, 308.1 K | 8.48e-05
in ethanol, 312.94 K | 9.91e-05
in ethanol, 318.15 K | 0.000118
in ethanol, 322.55 K | 0.000133
in ethanol, 327.45 K | 0.000156
in ethanol, 332.55 K | 0.000181
in ethanol, 338.05 K | 0.000206
in ethanol, 342.2 K | 0.000227
in isopropanol, 293.15 K | 3.47e-05
in isopropanol, 298.28 K | 4.15e-05
in isopropanol, 303.35 K | 4.8e-05
in isopropanol, 308.14 K | 5.43e-05
in isopropanol, 313.25 K | 6.15e-05
in isopropanol, 318.2 K | 6.96e-05
in isopropanol, 323.25 K | 7.96e-05
in isopropanol, 328.16 K | 9.09e-05
in isopropanol, 333.35 K | 0.000106
in isopropanol, 338.32 K | 0.000123
in isopropanol, 343.45 K | 0.000144
in methanol, 293.05 K | 0.000156
in methanol, 298.17 K | 0.000186
in methanol, 303.15 K | 0.000219
in methanol, 308.2 K | 0.000254
in methanol, 313.05 K | 0.000291
in methanol, 318.24 K | 0.000348
in methanol, 323.25 K | 0.000414
in methanol, 328.23 K | 0.000485
in methanol, 333.15 K | 0.000571
in n-butanol, 293.15 K | 6.11e-05
in n-butanol, 298.21 K | 6.93e-05
in n-butanol, 303.35 K | 7.66e-05
in n-butanol, 308.14 K | 8.49e-05
in n-butanol, 313.05 K | 9.47e-05
in n-butanol, 318.28 K | 0.000103
in n-butanol, 323 K | 0.000112
in n-butanol, 328.14 K | 0.000126
in n-butanol, 333.05 K | 0.000141
in n-butanol, 338.12 K | 0.000158
in n-butanol, 343.1 K | 0.000179
in n-propanol, 293.17 K | 5.79e-05
in n-propanol, 298.14 K | 7.34e-05
in n-propanol, 303.25 K | 8.52e-05
in n-propanol, 308.12 K | 0.000107
in n-propanol, 313.15 K | 0.000127
in n-propanol, 318.23 K | 0.00014
in n-propanol, 323.2 K | 0.000161
in n-propanol, 328.34 K | 0.000176
in n-propanol, 332.95 K | 0.000189
in n-propanol, 338.18 K | 0.000216
in n-propanol, 343.16 K | 0.000241
in sec-butanol, 293.35 K | 3.16e-05
in sec-butanol, 298.37 K | 3.49e-05
in sec-butanol, 303.25 K | 4.12e-05
in sec-butanol, 308.24 K | 4.36e-05
in sec-butanol, 313.15 K | 4.84e-05
in sec-butanol, 318.12 K | 6.19e-05
in sec-butanol, 323 K | 7.52e-05
in sec-butanol, 327.33 K | 9.18e-05
in sec-butanol, 330.85 K | 0.00011
in sec-butanol, 335.57 K | 0.000133
in sec-butanol, 340.5 K | 0.000165
in water, 293.15 K | 0.00421
in water, 298.12 K | 0.00516
in water, 303.15 K | 0.00636
in water, 308.22 K | 0.008
in water, 313.35 K | 0.0101
in water, 318.28 K | 0.0127
in water, 323.35 K | 0.0161
in water, 328.24 K | 0.0199
in water, 333.35 K | 0.0246
in water, 338.21 K | 0.0303
in water, 343.3 K | 0.0371
